The series in a line: gradient 5% acetonitrile 3 min, to 50% in 2 min, to 85% in 15 min, held 3 min, 100 µL/min. The following applies: column: Zorbax Extend-C18 2.1 x 50 mm; eluents: water / acetonitrile, 0.1% formic acid. An outline of the steps: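 Over 3 months, pure standards in mixtures of ~100 molecules were run by HPLC coupled to a quadrupole time-of-flight mass spectrometer in positive and negative ionization mode. The column was a Zorbax Extend-C18 (2.1 × 50 mm, 1.8 μm) at 100 μL/min, eluted with water and acetonitrile each holding 0.1% formic acid, with 40 μL dead and 900 μL dwell volumes. Retention time was determined from adduct peaks chosen by software and checked manually.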
As to `CC(CCNc1ccc(-c2nc(-c3ccc(F)cc3)no2)cn1)N1CCCCCC1` (centres undefined), the RP-LC retention time was determined as 768 s.
`CCc1nc2c(=O)n(CC(=O)N3CCN(c4ccccc4)CC3)nc(C)c2s1` showed an RP-LC retention time of 765 s.
The molecule `O=C(NC1CCCCC1)C1CCCN(C(=O)c2ccc(Cl)cc2)C1` (centres undefined) registered an RP-LC retention time of 855 s.
In the case of `COc1cccc(N2CCN(C(=O)Cn3ccc4c(SCc5ccc(F)cc5)nccc43)CC2)c1`, the RP-LC retention time came out at 795 s.
`Cc1ccc(CCC(=O)Nc2nc(-c3ccc4c(c3)NC(=O)C(C)O4)cs2)cc1` (centres undefined) gave an RP-LC retention time of 973 s.
Molecule `CCOC(=O)C1=C[C@]2(CC)CCCN3CCc4c(n1c1ccccc41)[C@@H]32` showed an RP-LC retention time of 777 s.
As to `O=C1CCc2cc(NC(=O)c3ccc(F)c(F)c3)ccc2N1`, the RP-LC retention time is 657 s.
Turning to `O=C(NCc1ccc(N2CCOCC2)cc1)c1cn2c(n1)CCCC2`, the RP-LC retention time is 586 s.
`CCn1cc(CCN2CCC(C(=O)Nc3ccc(C)cc3)CC2)c2cccnc21` registered an RP-LC retention time of 644 s.
Regarding `CC(C)(C)n1c(=O)c2ccc(F)cc2n1CC(=O)N1CCN(c2ccccc2)CC1`, the RP-LC retention time is 1180 s.
Molecule `CCCCOc1ccc(C(=O)N2CCCC2c2nc(-c3ccc(OC)cc3)no2)cc1` (centres undefined) came in with an RP-LC retention time of 1180 s.
In turn, `O=C(c1ccn2c(-c3ccc(Cl)cc3)nnc2c1)N1CCN(c2ccccn2)CC1` yielded an RP-LC retention time of 596 s.
As to `COc1ccccc1N1CCN(c2cc(SCC(=O)NCc3ccc4c(c3)OCO4)ncn2)CC1`, the RP-LC retention time was 840 s.
In the case of `O=S(=O)(c1ccc2c(c1)CCC2)N1CC(c2nc(CCOCc3ccccc3)no2)C1`, the RP-LC retention time is 1140 s.
`O=C1NCCCn2cc(S(=O)(=O)NCc3ccccc3Cl)cc21` gave an RP-LC retention time of 686 s.
For `O=S(=O)(c1ccccc1Cl)N1CCC(c2noc(COCC3CC3)n2)CC1`, the RP-LC retention time came out at 950 s.
In turn, `CCOC(=O)c1ccc(NC(=O)NCC2CCN(Cc3ccc(C)cc3)C2)cc1` (centres undefined) returned an RP-LC retention time of 688 s.
Take `COc1ccccc1NC(=O)Cn1nc2cc(C)nc(Nc3ccccc3)n2c1=O`: the RP-LC retention time is 1020 s.
Take `Cc1nc(CC(=O)NC2CCCC2)sc1C(=O)NCc1ccccc1`: the RP-LC retention time is 734 s.
The figure for `COc1ccc(NC(=O)C2CCCN(c3ncnc4c3nc3n4CCCCC3)C2)cc1` (centres undefined) is 753 s; for `COC(=O)Nc1ccc(CC(=O)NCc2cccs2)cc1` it is 662 s.
For the molecule `COC(=O)[C@H](CC1C=NC=N1)NCC12CC3CC(CC(C3)C1)C2` (some centres undefined), the RP-LC retention time amounted to 607 s.
With `O=C(Nc1c(-c2ccc(F)cc2)nc2ccccn12)C1CC1`, the RP-LC retention time turned out to be 578 s.
The figure for `Cc1cc(C)cc(C(=O)OC2C[C@H]3CC[C@@H](C2)N3C)c1` (some centres undefined) is 729 s.
Take `CCCS(=O)(=O)N1CCCC(c2nc(C(C)C)no2)CCNC(=O)CC1` (centres undefined): the RP-LC retention time came to 720 s.
The molecule `CCCN(CC(=O)N(Cc1ccco1)CC1CCCO1)C(=O)c1ccccc1OC` (centres undefined) had an RP-LC retention time of 870 s.
On to `O=C(NC1CC1)[C@@H]1C[C@H](Oc2ccccc2)CN1C(=O)COc1ccccc1`, for which the RP-LC retention time was 797 s.
As to `Cc1ccc(C(=O)NC2CCN(c3nnc4ccccn34)CC2)cc1N1CCCC1=O`, the RP-LC retention time was 596 s.
The molecule `COc1ccc(CN2C=C(C(=O)OCc3noc(-c4ccccc4C)n3)C(C)=NS2(=O)=O)cc1` came in with an RP-LC retention time of 861 s.
To `Clc1cccc(N2CCN(c3ncnc4[nH]ncc34)CC2)c1` belongs 725 s.
In the case of `COc1ccc(S(=O)(=O)NCCCn2ccnc2)cc1C(C)(C)C`, the RP-LC retention time worked out at 589 s.
The figure for `CC(C)CC(=O)Nc1ccc(-c2nc(-c3ccccc3)co2)cc1` is 1100 s; for `Cc1ccn2cc(-c3ccc(NS(=O)(=O)c4ccc5ccccc5c4)cc3)nc2n1` it is 690 s; for `c1ccc2c(-c3nc(C4CC4)no3)nnc(NC3CCCCC3)c2c1` it is 775 s.
In turn, `N#CCCSc1ccccc1NC(=O)c1cc2cc([N+](=O)[O-])ccc2s1` had an RP-LC retention time of 954 s.
`COc1ccccc1-c1nnc(C2CCN(S(C)(=O)=O)CC2)s1` displayed an RP-LC retention time of 734 s.
`CN1CCN(CCNC(=O)c2nc3ccccn3c2-c2ccc(Cl)cc2)CC1`: the RP-LC retention time worked out at 603 s.
To `Fc1ccccc1-c1nc(-c2ccnc(N3CCCC3)c2)no1` belongs 702 s; to `Cc1noc(C)c1-c1ccc(S(=O)(=O)NCc2ccc3c(c2)OCO3)cc1`, 894 s.
To `CCn1c(C2CCN(C(=O)c3ccc(Br)o3)C2)nc2cccnc21` (centres undefined) belongs 678 s; to `O=C(c1ccccc1F)N1CCC(c2nc(-c3ccccc3)no2)C1` (centres undefined), 911 s; to `Cn1nc(-c2nc(-c3ccccc3F)no2)c2c1CCN(C(=O)NC1CCCC1)C2`, 800 s.
To `COc1ccc(S(=O)(=O)N2CCCC(C(=O)Nc3c(F)cccc3F)C2)cc1OC` (centres undefined) belongs 818 s; to `COc1cc(NC(=O)c2nnn(-c3cc(OC)cc(OC)c3)c2C)cc(OC)c1`, 1050 s.
`Cc1cc(N2CCN(C)CC2)nc2ccc(NC(=S)NC3CCCC(C)C3C)cc12` (centres undefined) gave an RP-LC retention time of 639 s.
`COc1cc(OC)cc(-c2nc(-c3ccc(-n4ccnc4)nc3)no2)c1` gave an RP-LC retention time of 769 s.
`Cc1ccc(C(=O)N(CCc2cscn2)Cc2cccnc2)cc1C`: the RP-LC retention time is 636 s.
`COc1ccc(-c2noc(-c3nn(-c4ccc(Cl)cc4)ccc3=O)n2)cc1` displayed an RP-LC retention time of 877 s.
As for `COc1ccc(-c2ncc3c(n2)CCN(C(=O)c2cccc(Cl)c2)C3)cc1`, the RP-LC retention time amounted to 975 s.
`O=C(Nc1nnc(C(F)(F)F)s1)C1CCN(C(=O)c2ccc(F)cc2)CC1` returned an RP-LC retention time of 815 s.
In turn, `Cc1ccc(CNC(=O)N2CC(c3nc(C)no3)C3(CCOCC3)C2)cc1` (centres undefined) yielded an RP-LC retention time of 731 s.
In turn, `NC(=O)C1CCN(S(=O)(=O)c2ccc3[nH]cc(C(=O)O)c(=O)c3c2)CC1` displayed an RP-LC retention time of 596 s.
In turn, `Fc1ccc(OCc2nc(-c3ccc4c(c3)ncn4CCN3CCCCC3)no2)cc1` displayed an RP-LC retention time of 654 s.
`COc1ccc(-n2c(=O)n(C)c(=O)c3cc(C(=O)NCc4ccc(F)cc4)cnc32)cc1` displayed an RP-LC retention time of 849 s.
`COc1cc(NCc2ccccc2O)c2ncccc2c1` gave an RP-LC retention time of 758 s.
The figure for `CNC(=O)CCc1nc2ccccc2n(CC(=O)NCc2ccccc2Br)c1=O` is 700 s; for `CC12CC(c3ccccc3O1)C(C(=O)Nc1cccc(C(F)(F)F)c1)C(=O)N2` (centres undefined) it is 897 s.
`COc1cc2ncnc(Nc3cccc(Cl)c3)c2cc1OC` came in with an RP-LC retention time of 750 s.
As for `Cc1ccc(NS(=O)(=O)c2c(-c3nc(C4CCC4)no3)c(C)n(C)c2C)cc1`, the RP-LC retention time came out at 989 s.
